Experimental findings from PubChem BioAssay (NCI) are described below.

SMILES strings stand for the structures. Values joined by “and” are separate entries in the source; they are usually repeats but may differ in a detail not shown here. Equal values may be shown once.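 48-hour exposure; five concentrations; linearly interpolated endpoints. GI50 is the concentration that inhibits growth by half. The concentration for full growth arrest is given as TGI.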

Some test systems named below: HT29 colon; KM12 colon; A549 NSCLC; TK-10 renal; CAKI-1 renal; MDA-MB-231 breast; M14 melanoma; HCT-15 colon; SW-620 colon; SR leukemia.
Common to all, as to assay: NCI-60 cell line screen, 48 h

Consider `COc1cc(C2C(C#N)=C(N)OC3=C2C(=O)c2ccccc2C3=O)cc(OC)c1OC` (configuration not stated), for which the GI50 was 3.45 µM with HT29 colon; 0.728 µM in the assay on KM12 colon; 1.32 µM in the assay on A549 NSCLC; 10 µM in the assay with TK-10 renal; 0.736 µM in the assay on CAKI-1 renal; 3.53 µM in the assay with MDA-MB-231 breast. The GI50 was 0.395 µM in the assay on M14 melanoma, 1.45 µM in the assay on HCT-15 colon, 0.413 µM with SW-620 colon and 0.337 µM in the assay on SR leukemia. In addition, the TGI in the assay with HT29 colon was 41.3 µM; in the assay on KM12 colon, over 100 µM; in the assay on A549 NSCLC, 29.6 µM; with TK-10 renal, over 100 µM; with CAKI-1 renal it was 20.6 µM; in the assay on MDA-MB-231 breast, 41.7 µM. Also, the TGI with M14 melanoma was 16.1 µM; in the assay with HCT-15 colon, 18.5 µM; with SW-620 colon, 25.9 µM; with SR leukemia it was over 100 µM.
As for `COc1ccc(/C=C2\COc3ccc(-c4ccccc4)cc3C2=O)cc1O`, the GI50 in the assay with HT29 colon was 1.46 µM; in the assay with KM12 colon, 1.75 µM; with A549 NSCLC, 2.96 µM; in the assay on TK-10 renal, 2.14 µM; in the assay on CAKI-1 renal, 4.61 µM; in the assay on MDA-MB-231 breast, 3.98 µM. Besides, the GI50 with M14 melanoma was 3.41 µM; in the assay on HCT-15 colon it was 1.69 µM; in the assay with SW-620 colon, 1.82 µM; with SR leukemia, 2 µM. For the same compound, the TGI was 3.85 µM in the assay with HT29 colon; 4.09 µM with KM12 colon; 18.9 µM with A549 NSCLC; 8.3 µM with TK-10 renal; 32.9 µM with CAKI-1 renal; 20.2 µM with MDA-MB-231 breast. Also, the TGI in the assay on M14 melanoma was 14.6 µM; with HCT-15 colon it was 4.37 µM; with SW-620 colon it was 3.72 µM; in the assay on SR leukemia, over 100 µM.
As for `COc1ccccc1-n1c(SCc2cc(OC)c(OC)c(OC)c2)nc2ccc(Cl)cc2c1=O`, the GI50 was 2.91 µM with HT29 colon; 1.46 µM in the assay with KM12 colon; 2.87 µM in the assay on A549 NSCLC; 48.6 µM in the assay with TK-10 renal; 2.8 µM in the assay with CAKI-1 renal; 4.24 µM in the assay with MDA-MB-231 breast. Also, the GI50 is 2.22 µM in the assay on M14 melanoma, 1.46 µM in the assay on HCT-15 colon, 2.59 µM in the assay with SW-620 colon and 0.538 µM in the assay with SR leukemia. Moreover, the TGI with HT29 colon, in the assay with KM12 colon, in the assay on A549 NSCLC, with TK-10 renal, in the assay with CAKI-1 renal and with MDA-MB-231 breast was over 100 µM throughout. The TGI in the assay with M14 melanoma, in the assay with HCT-15 colon, with SW-620 colon and with SR leukemia was over 100 µM in each case.
In the case of `O=C1c2cc(CCl)sc2C(=O)c2ccsc21`, the TGI in the assay on HT29 colon is 2.56 µM; with KM12 colon, 3.03 µM; in the assay on A549 NSCLC, 0.417 µM; in the assay on TK-10 renal, 3.41 µM; with CAKI-1 renal it was 3.09 µM; in the assay on MDA-MB-231 breast it was 0.588 µM. For the same compound, the TGI in the assay with M14 melanoma amounted to 0.0462 µM; with HCT-15 colon it was 1.48 µM; in the assay on SW-620 colon, 0.387 µM; in the assay on SR leukemia it was 0.571 µM.
With `Cn1ccnc1C(=O)/C=C/c1ccc(C(=O)Nc2nc3ccccc3[nH]2)cc1`, the GI50 is 1.01 µM with HT29 colon; 1.12 µM in the assay with KM12 colon; 10.3 µM in the assay on A549 NSCLC; 13.3 µM in the assay on TK-10 renal; 1.63 µM in the assay on CAKI-1 renal; 3.05 µM in the assay with MDA-MB-231 breast. Further, the GI50 in the assay on M14 melanoma was 10.3 µM; in the assay on HCT-15 colon it was 0.864 µM; in the assay on SW-620 colon, 0.808 µM; with SR leukemia, 0.956 µM. Further, the TGI in the assay with HT29 colon was over 25 µM; in the assay on KM12 colon, over 25 µM; in the assay with A549 NSCLC it was over 25 µM; with TK-10 renal, over 25 µM; in the assay on CAKI-1 renal it was over 25 µM; in the assay on MDA-MB-231 breast, 13.1 µM. Moreover, the TGI in the assay with M14 melanoma, with HCT-15 colon, in the assay with SW-620 colon and with SR leukemia was over 25 µM each time.
With `O=[N+]([O-])c1ccc2c(N=Nc3c(O)ccc4ccccc34)c(O)cc(S(=O)(=O)O)c2c1`, the GI50 is 49.6 µM in the assay with HT29 colon; 49.9 µM with KM12 colon; 59.7 µM in the assay with A549 NSCLC; 87.3 µM in the assay with TK-10 renal; over 100 µM in the assay on MDA-MB-231 breast; 29.9 µM with HCT-15 colon. The GI50 in the assay with SW-620 colon was 57.7 µM. The TGI was 50 µM and > 100 µM in the assay with HT29 colon; 50 µM and > 100 µM in the assay on KM12 colon; 50 µM and > 100 µM in the assay with A549 NSCLC; 50 µM and > 100 µM in the assay with TK-10 renal; 50 µM in the assay on CAKI-1 renal; 50 µM and > 100 µM in the assay on MDA-MB-231 breast. Besides, the TGI with M14 melanoma was 10.5 µM; in the assay on HCT-15 colon it was 50 µM and > 100 µM; in the assay on SW-620 colon it was 50 µM and > 100 µM; in the assay on SR leukemia, over 100 µM.
Consider `NC(CSC(c1ccccc1)(c1ccccc1)c1ccc2ccccc2c1)C(=O)O` (configuration not stated), for which the GI50 was 0.2 µM with HT29 colon; 0.0804 µM with KM12 colon; 0.095 µM in the assay with A549 NSCLC; 0.524 µM in the assay with TK-10 renal; 0.0998 µM in the assay on CAKI-1 renal; 0.0695 µM with MDA-MB-231 breast. Moreover, the GI50 with M14 melanoma was 0.0211 µM; in the assay on HCT-15 colon it was 0.175 µM; in the assay on SW-620 colon it was 0.0381 µM; with SR leukemia, 0.0869 µM. Further, the TGI was over 100 µM with HT29 colon; 3.21 µM with KM12 colon; 26.4 µM in the assay with A549 NSCLC; 23.6 µM in the assay with TK-10 renal; 34.6 µM with CAKI-1 renal; 5 µM in the assay with MDA-MB-231 breast. Moreover, the TGI was 0.0512 µM in the assay with M14 melanoma, 23.7 µM in the assay with HCT-15 colon, 11.6 µM in the assay with SW-620 colon and over 40.5 µM in the assay on SR leukemia.
